Measured values taken from patent US6414147B1, “2-amino-9-alkylpurines: GABA brain receptor ligands” (Neurogen Corporation, priority 1998, dated 2002).

Row | SMILES | melting point [°C]
1 | CCCn1cnc2c(Oc3ccccc3)nc(Nc3ccc(OC)nc3)nc21 [compound 66, 2-[(2-Methoxypyrid-5-yl)amino]-6-phenoxy-9-propyl-9H-purine] | 188 to 190
2 | C=C(C)COc1nc(Nc2ccc(OCC)nc2)nc2c1ncn2CCC [compound 77, 2-[(2-Ethoxypyrid-5-yl)amino]-6-(2-methyl-2-propen-1-oxy)-9-propyl-9H-purine] | 112 to 114
3 | CCCCn1cnc2c(Oc3cccnc3)nc(Nc3ccc(F)cc3)nc21.CS(=O)(=O)O [compound 37, 2-[(4-Fluorophenyl)amino]-6-(pyrid-3-yloxy)-9-butyl-9H-purine methanesulfonate] | > 300
4 | CCCCn1cnc2c(OCC)nc(Nc3ccc(C)cc3C)nc21 [compound 51, 2-[(2,4-Dimethylphenyl)amino]-6-ethoxy-9-butyl-9H-purine] | 97 to 99
5 | CCCn1cnc2c(OCC(C)C)nc(Nc3ccc(OC)nc3)nc21 [compound 65, 2-[(2-Methoxypyrid-5-yl)amino]-6-(2-methylprop-1-oxy)-9-propyl-9H-purine] | 113 to 115
6 | CCCCn1cnc2c(OCC(F)F)nc(Nc3ccc(OCC)nc3)nc21 [compound 80, 2-[(2-Ethoxypyrid-5-yl)amino]-6-(2,2-difluoroethoxy)-9-butyl-9H-purine] | 151 to 152
7 | C=C(C)COc1nc(Nc2ccc(OCC)nc2)nc2c1ncn2CCCC [compound 75, 2-[(2-Ethoxypyrid-5-yl)amino]-6-(2-methyl-2-propen-1-oxy)-9-butyl-9H-purine] | 108 to 110
8 | CCCCn1cnc2c(OCc3cccs3)nc(Nc3ccc(OCC)nc3)nc21 [compound 76, 2-[(2-Ethoxypyrid-5-yl)amino]-6-(thien-2-ylmethoxy)-9-butyl-9H-purine] | 116 to 118
9 | CCCCn1cnc2c(Oc3ccc(OCC)cc3)nc(Nc3ccc(F)cc3)nc21 [compound 36, 2-[(4-Fluorophenyl)amino]-6-(4-ethoxyphenoxy)-9-butyl-9H-purine] | 138 to 140
10 | CCCCn1cnc2c(OC)nc(Nc3ccc4c(c3)OCO4)nc21 [compound 95, 2-[(3,4-Methylenedioxyphenyl)amino]-6-methoxy-9-butyl-9H-purine] | 160 to 161

Second part, the compound after the results:

Row | melting point [°C] | SMILES
11 | 108 to 110 | CCCCn1cnc2c(OCCO)nc(Nc3ccccc3)nc21 [compound 12, 2-(Phenylamino)-6-(2-hydroxyethoxy)-9-butyl-9H-purine]
12 | 124 to 125 | CCCCn1cnc2c(Oc3ccccc3)nc(Nc3ccccc3)nc21 [compound 19, 2-(Phenylamino)-6-phenoxy-9-butyl-9H-purine]
13 | 129 to 131 | CCCCn1cnc2c(OCCOC)nc(Nc3ccccc3)nc21 [compound 10, 2-(Phenylamino)-6-(2-methoxyethoxy)-9-butyl-9H-purine]
14 | 165 to 167 | CCCCn1cnc2c(OCC(F)F)nc(Nc3ccc(OC)nc3)nc21 [compound 59, 2-[(2-Methoxypyrid-5-yl)amino]-6-(2,2-difluoroethoxy)-9-butyl-9H-purine]
15 | 174 to 176 | CCCCn1cnc2c(OC)nc(Nc3ccc(OCC)nc3)nc21 [compound 1, 2-[(2-Ethoxypyrid-5-yl)amino]-6-methoxy-9-butyl-9H-purine]
16 | 188 to 192 | C=CCOc1nc(Nc2cnc3ccccc3c2)nc2c1ncn2CCCC [compound 92, 2-[(Quinolin-3-yl)amino]-6-(2-propen-1-oxy)-9-butyl-9H-purine]
17 | 149 to 150 | CCCCn1cnc2c(OCCOCCC)nc(Nc3ccc(F)cc3)nc21 [compound 30, 2-[(4-Fluorophenyl)amino]-6-(2-prop-1-oxyethoxy)-9-butyl-9H-purine]
18 | 170 to 172 | CCCCn1cnc2c(OCC)nc(Nc3ccc(OC)nc3)nc21 [compound 56, 2-[(2-Methoxypyrid-5-yl)amino]-6-ethoxy-9-butyl-9H-purine]
